Reference: patent US20230399287A1, “NOVEL COMPOUNDS” (Sitryx Therapeutics Limited, priority 2020, published 2023)
Counter-ions that a name gives are not always drawn.

Assays:
IL-1β = test: THP-1 AlphaLISA IL-1β cytokine assay; format: cell-based; conditions: LPS 24 hr then Nigericin 1 hour
Description: (§1) Measuring Inhibitory Effects on IL-1V and IL-6 Cytokine Output from THP-1s
(§2) The cytokine inhibition profiles of compounds of formula (I) were determined in a differentiated THP-1 cell assay. All assays were performed in RPMI-1640 growth medium (Gibco), supplemented with 10% fetal bovine serum (FBS; Gibco), 1% penicillin-streptomycin and 1% sodium pyruvate unless specified otherwise. The IL-1β and IL-6 cytokine inhibition assays were run in a background of differentiated THP-1 cells as described below. All reagents described were from Sigma-Aldrich unless specified otherwise. Compounds were prepared as 10 mM DMSO stocks.
(§3) THP-1 cells were expanded as a suspension up to 80% confluence in appropriate growth medium. Cells were harvested, suspended, and treated with an appropriate concentration of phorbol 12-myristate 13-acetate (PMA) over a 72 hr period (37° C./5% CO2).
(§4) Following 72 hrs of THP-1 cell incubation, cellular medium was removed and replaced with fresh growth media containing 1% of FBS. Working concentrations of compounds were prepared separately in 10% FBS treated growth medium and pre-incubated with the cells for 30 minutes (37° C./5% CO2). Following the 30 minute compound pre-incubation, THP-1s were treated with an appropriate concentration of LPS and the THP-1s were subsequently incubated for a 24 hr period (37° C./5% CO2). An appropriate final concentration of Nigericin was then dispensed into the THP-1 plates and incubated for 1 hour (37° C./5% CO2) before THP-1 supernatants were harvested and collected in separate polypropylene 96-well holding plates.
(§5) Reagents from each of the IL-1β and IL-6 commercial kits (Perkin Elmer) were prepared and run according to the manufacturer's instructions. Subsequently, fluorescence signal detection in a microplate reader was measured (EnVision® Multilabel Reader, Perkin Elmer).
(§6) Percentage inhibition was calculated per cytokine by normalising the sample data to the high and low controls used within each plate (+/−LPS respectively). Percentage inhibition was then plotted against compound concentration and the 50% inhibitory concentration ([…]) was determined from the resultant concentration-response curve.

IL-6 = test: THP-1 AlphaLISA IL-6 cytokine assay; format: cell-based; conditions: LPS 24 hr then Nigericin 1 hour
Description: as §1, §2, §3, §4, §5, §6

hepatocytes [1] = test: Hepatocyte stability assay (human); format: in vitro ADME; conditions: 10 μM compound, 60 min
Description: (§7) Defrosted cryo-preserved hepatocytes (viability>70%) were used to determine the metabolic stability of a compound via calculation of intrinsic clearance (Clint; a measure of the removal of a compound from the liver in the absence of blood flow and cell binding). Clearance data are particularly important for in vitro work as they can be used in combination with in vivo data to predict the half-life and oral bioavailability of a drug.
(§8) The metabolic stability in hepatocytes assay involved a time-dependent reaction using both positive and negative controls. The cells must be pre-incubated at 37° C. then spiked with test compound (and positive control); samples taken at pre-determined time intervals were analysed to monitor the change in concentration of the initial drug compound over 60 minutes. A buffer incubation reaction (with no hepatocytes present) acted as a negative control and two cocktail solutions, containing compounds with known high and low clearance values (verapamil/7-hydroxycoumarin and propranolol/diltiazem), acted as positive controls. • 1. The assay was run with a cell concentration of 0.5×10^6 cells/mL in Leibovitz buffer. • 2. All compounds and controls were run in duplicate. • 3. Compound concentration was 10 μM. • 4. All compounds and controls were incubated with both cells and buffer to show turnover is due to hepatic metabolism. • 5. All wells on the incubation plate had 326.7 μL of either cells or buffer added. • 6. Prior to assay, cell and buffer-only incubation plates were preincubated for 10 mins at 37° C. • 7. The assay was initiated by adding compounds, 3.3 μL of 1 mM in 10% DMSO-90% Buffer; final DMSO concentration is 0.1%. • 8. Samples were taken at regular timepoints (0, 5, 10, 20, 40, 60 min) until 60 mins. • 9. Sample volume was 40 μL and added to 160 μL of crash solvent (acetonitrile with internal standard) and stored on ice. • 10. At the end of the assay, the crash plates were centrifuged at 3500 rpm for 20 mins at 4° C. • 11. 80 μL of clear supernatant was removed and mixed with 80 μL of deionised water before being analysed by LC-MS/MS.
(§9) Raw LC-MS/MS data were exported to, and analysed in, Microsoft Excel for determination of intrinsic clearance. The percentage remaining of a compound was monitored using the peak area of the initial concentration as 100%. Intrinsic clearance and half-life values were calculated using a graph of the natural log of percentage remaining versus the time of reaction in minutes. Half-life (min) and intrinsic clearance (Clint in μL min^−1 10^−6 cells) values were calculated using the gradient of the graph (the elimination rate constant, k) and Equations 1 and 2.

hepatocytes [2] = test: Hepatocyte stability assay (mouse); format: in vitro ADME; conditions: 10 μM compound, 60 min
Description: as §7, §8, §9

NRF2 = NRF2 +/- GSH activation assay (DiscoverX PathHunter NRF2 translocation kit); format: cell-based; conditions: for EC50: U2OS PathHunter cells; for NRF2 activation Emax / Emax: normalised to dimethyl fumarate high control
[3] = Hepatocyte stability assay (mouse); format: in vitro ADME; conditions: mouse, cryopreserved hepatocytes, 10 μM compound, 60 min, read-out: T½
Description: as §7, §8, §9

[4] = Homo sapiens, THP-1, differentiated THP-1 cells

SMILES	IC50 (IL-1β; [4]) [µM]	IC50 (IL-6; [4]) [µM]	further results
C#CC(OC(=O)CC(=C)C(=O)O)c1ccc(C(F)(F)F)cc1 (single isomer, unassigned) [Example 37, 2-methylene-4-oxo-4-((1-(4-(trifluoromethyl)phenyl)prop-2-yn-1-yl)oxy)butanoic acid]	14.5		IC50 (IL-6; differentiated THP-1 cells): > 31.6 µM; Clint (hepatocytes [1]): <3 μL min^−1 10^−6 cells; T½ (hepatocytes [1]): >460 min; Clint (hepatocytes [2]): 34 μL min^−1 10^−6 cells; T½ (hepatocytes [2]): 48 min
C#CC(OC(=O)CC(=C)C(=O)O)c1ccc(C(F)(F)F)cc1 (single isomer, unassigned) [Example 38, 2-methylene-4-oxo-4-((1-(4-(trifluoromethyl)phenyl)prop-2-yn-1-yl)oxy)butanoic acid]			IC50 (IL-1β; differentiated THP-1 cells): 9.4 µM; IC50 (IL-6; differentiated THP-1 cells): > 100 µM; Clint (hepatocytes [1]): 7 μL min^−1 10^−6 cells; T½ (hepatocytes [1]): 183 min; Clint (hepatocytes [2]): 13 μL min^−1 10^−6 cells; T½ (hepatocytes [2]): 163 min
C=C(CC(=O)OC1(c2ccc(C(F)(F)F)cc2)CC(C(F)(F)F)C1)C(=O)O (single isomer, unassigned) [Example 43, 2-methylene-4-oxo-4-(3-(trifluoromethyl)-1-(4-(trifluoromethyl)phenyl)cyclobutoxy)butanoic acid]	83.5	> 100	
C=C(CC(=O)OCCCCCCCC)C(=O)O [4-octyl itaconate, reference compound]			IC50 (IL-1β; differentiated THP-1 cells): 38.3 µM; IC50 (IL-6; differentiated THP-1 cells): 20.3 µM; EC50 (NRF2; +GSH): 28.9 µM; NRF2 activation Emax (NRF2; +GSH): 148%; EC50 (NRF2; −GSH): 22.1 µM; NRF2 activation Emax (NRF2; −GSH): 165%; Clint (hepatocytes [1]): 401 μL min^−1 10^−6 cells; T½ (hepatocytes [1]): 4 min; Clint (hepatocytes [2]): 351 μL min^−1 10^−6 cells; T½ (hepatocytes [2]): 4 min
C=C(CC(=O)O[C@H](C)c1ccc(C(F)(F)F)cc1)C(=O)O [Example 3, (R)-2-methylene-4-oxo-4-(1-(4-(trifluoromethyl)phenyl)ethoxy)butanoic acid]	33.6	> 56.2	
C=C(CC(=O)OC1(c2ccc(C(F)(F)F)cc2Cl)CCC1)C(=O)O [Example 6, 4-(1-(2-chloro-4-(trifluoromethyl)phenyl)cyclobutoxy)-2-methylene-4-oxobutanoic acid]	45.4	> 100	
C=C(CC(=O)OC(CC)c1ccc(C(F)(F)F)cc1)C(=O)O (stereo not shown) [Example 10, 2-methylene-4-oxo-4-(1-(4-(trifluoromethyl)phenyl)propoxy)butanoic acid]	5.8	> 100	Emax (NRF2; +GSH): 13%; EC50 (NRF2; Homo sapiens, U2OS, +GSH): > 100 µM; EC50 (NRF2; Homo sapiens, U2OS, −GSH): > 100 µM; Emax (NRF2; −GSH): 0%
C=C(CC(=O)OC1(c2ccc(C)c(Cl)c2)CCC1)C(=O)O [Example 14, 4-(1-(3-chloro-4-methylphenyl)cyclobutoxy)-2-methylene-4-oxobutanoic acid]	24.5	> 100	
C=C(CC(=O)OC1(c2ccc(OC(F)(F)F)cc2)CCC1)C(=O)O [Example 15, 2-methylene-4-oxo-4-(1-(4-(trifluoromethoxy)phenyl)cyclobutoxy)butanoic acid]	15.9	> 100	
C=C(CC(=O)OC1(c2ccc(-c3ccc(F)cc3)cc2)CCC1)C(=O)O [Example 16, 4-(1-(4′-fluoro-[1,1′-biphenyl]-4-yl)cyclobutoxy)-2-methylene-4-oxobutanoic acid]	> 100	21.5	
C=C(CC(=O)OC1(c2ccc(C(F)(F)c3ccccc3)cc2)CCC1)C(=O)O [Example 28, 4-(1-(4-(difluoro(phenyl)methyl)phenyl)cyclobutoxy)-2-methylene-4-oxobutanoic acid]	> 31.6	19.6	
C=C(CC(=O)O[C@@H](c1ccc(C(F)(F)F)cc1)C(F)(F)F)C(=O)O [Example 33, (S)-2-methylene-4-oxo-4-(2,2,2-trifluoro-1-(4-(trifluoromethyl)phenyl)ethoxy)butanoic acid]	> 56.2	> 63.1	
C=C(CC(=O)OC1(c2ccc(C(F)(F)F)cc2)CN(C)C1)C(=O)O [Example 48, 4-((1-methyl-3-(4-(trifluoromethyl)phenyl)azetidin-3-yl)oxy)-2-methylene-4-oxobutanoic acid]	58.4	> 31.6	
C=C(CC(=O)OC1(c2cc(F)c(C(F)(F)F)c(F)c2)CCC1)C(=O)O [Example 53, 4-(1-(3,5-difluoro-4-(trifluoromethyl)phenyl)cyclobutoxy)-2-methylene-4-oxobutanoic acid]	29.7	> 100	
C=C(CC(=O)OC1(c2ccc3cc(Br)ccc3c2)CCC1)C(=O)O [Example 54, 4-(1-(6-bromonaphthalen-2-yl)cyclobutoxy)-2-methylene-4-oxobutanoic acid]	> 100	18.1	
C=C(CC(=O)OCc1ccc(C(F)(F)F)c(F)c1)C(=O)O [Example 55, 4-((3-fluoro-4-(trifluoromethyl)benzyl)oxy)-2-methylene-4-oxobutanoic acid]	19.5	> 100	half-life at 10 μM [3]: 55 min; Clint (hepatocytes [2]): 29 μL min^−1 10^−6 cells
C=C(CC(=O)OCc1ccc(C(F)(F)F)cn1)C(=O)O [Example 56, 2-methylene-4-oxo-4-((5-(trifluoromethyl)pyridin-2-yl)methoxy)butanoic acid]	46.2	> 100	
C=C(CC(=O)OC1(C#Cc2ccc(C(F)(F)F)cc2)CCC1)C(=O)O [Example 60, 2-methylene-4-oxo-4-(1-((4-(trifluoromethyl)phenyl)ethynyl)cyclobutoxy)butanoic acid]	> 100	34.1	
C=C(CC(=O)OC1(c2cnc(C(F)(F)F)cn2)CCC1)C(=O)O [Example 63, 2-methylene-4-oxo-4-(1-(5-(trifluoromethyl)pyrazin-2-yl)cyclobutoxy)butanoic acid]	50.9	> 31.6	
COC(=O)/C=C/C(=O)OC [dimethyl fumarate, reference compound]		9.3	IC50 (IL-1β; differentiated THP-1 cells): 14.4 µM; Emax (NRF2; +GSH): 19%; EC50 (NRF2; Homo sapiens, U2OS, +GSH): > 100 µM; EC50 (NRF2; Homo sapiens, U2OS, −GSH): 6 µM; Emax (NRF2; −GSH): 100%
C=C(CC(=O)OC)C(=O)OC [dimethyl itaconate, reference compound]	> 100	100	Emax (NRF2; +GSH): 77%; Emax (NRF2; −GSH): 137%
